Measurements taken from patent US7557213B2, “Substituted quinolones and methods of use” (ChemoCentryx, Inc., priority 2005, dated 2009).
pIC50: −log10 of the molar value. Like-named read-outs stand apart in the source and are kept apart here.

Target: T1, CCXCKR2 receptor (Homo sapiens, UniProt P25106)
T1 construct: expressed in transfected cells; host or cells: MDA-MB-435S transfected with pcDNA3.1(+)-hRDC1 and/or MCF-7 (endogenous receptor)
Test: Displacement of 125I-labeled SDF-1 from the CCXCKR2 receptor on MCF-7 and/or CCXCKR2-transfected MDA-MB-435S cells (radioligand binding, filtration)

[1] = 125I SDF-1, 3 hr at 4° C., MCF-7 and/or MDA-MB-435S cells, read-out: Activity (concentration displacing at least 50% of the SDF-1 from the CCXCKR2 receptor)

T1 sequence (P25106 whole entry): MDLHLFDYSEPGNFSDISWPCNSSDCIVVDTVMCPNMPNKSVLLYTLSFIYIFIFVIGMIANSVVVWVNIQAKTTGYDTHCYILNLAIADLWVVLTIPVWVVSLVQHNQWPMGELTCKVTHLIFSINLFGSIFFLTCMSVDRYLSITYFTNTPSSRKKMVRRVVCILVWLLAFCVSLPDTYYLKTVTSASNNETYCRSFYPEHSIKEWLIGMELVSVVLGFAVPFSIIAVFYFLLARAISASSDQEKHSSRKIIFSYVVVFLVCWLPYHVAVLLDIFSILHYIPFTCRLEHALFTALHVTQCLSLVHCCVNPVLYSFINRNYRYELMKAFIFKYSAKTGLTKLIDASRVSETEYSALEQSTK

| SMILES | pIC50 [1] | pIC50 |
| --- | --- | --- |
| Cc1ccc(C(=O)c2cn(Cc3ccccn3)c3cc4c(cc3c2=O)OCO4)cc1C [Example 1] | 6.30 to 7.00 | – |
| Cc1ccc(C(=O)c2cn(Cc3ccncc3)c3cc4c(cc3c2=O)OCO4)cc1C [Example 3] | 4.70 to 6.30 | – |
| Cc1ccc(C(=O)c2cn(Cc3ccccc3F)c3ccccc3c2=O)cc1C [Example 4] | > 7.00 | – |
| Cc1cccc(Cn2cc(C(=O)c3ccc(C)c(C)c3)c(=O)c3cc4c(cc32)OCCO4)c1 [Example 5] | 4.70 to 6.30 | – |
| Cc1ccc(C(=O)c2cn(Cc3ccccc3C)c3cc4c(cc3c2=O)OCCO4)cc1C [Example 6] | 4.70 to 6.30 | – |
| Cc1ccc(C(=O)c2cn(Cc3ccccn3)c3ccccc3c2=O)cc1C [Example 8] | > 7.00 | – |
| Cc1cccc(Cn2cc(C(=O)c3ccc(C)c(C)c3)c(=O)c3ccccc32)c1 [Example 9] | – | > 7.00 |
| Cc1ccc(C(=O)c2cn(Cc3cccnc3)c3ccccc3c2=O)cc1C [Example 10] | 4.70 to 6.30 | – |
| Cc1ccc(C(=O)c2cn(Cc3ccccn3)c3cc4c(cc3c2=O)OCCO4)cc1C [Example 11] | 4.70 to 6.30 | – |
| Cc1ccc(C(=O)c2cn(Cc3cccnc3)c3cc4c(cc3c2=O)OCCO4)cc1C [Example 12] | 4.70 to 6.30 | – |
| Cc1ccc(C(=O)c2cn(Cc3ccccn3)c3ccc(C(F)(F)F)cc3c2=O)cc1C [Example 13] | 4.70 to 6.30 | – |
| Cc1cccc(Cn2cc(C(=O)c3ccncc3)c(=O)c3ccccc32)c1 [Example 17] | 4.70 to 6.30 | – |
| Cc1cccc(Cn2cc(C(=O)c3cccc(C)c3)c(=O)c3ccccc32)c1 [Example 20] | – | > 7.00 |
| Cc1cccc(C(=O)c2cn(Cc3ccccn3)c3ccccc3c2=O)c1 [Example 22] | > 7.00 | – |
| Cc1cc(C(=O)c2cn(Cc3cccc(C)n3)c3ccccc3c2=O)ccn1 [Example 25] | 4.70 to 6.30 | – |
| Cc1cccc(Cn2cc(C(=O)c3ccnc(C)c3)c(=O)c3ccccc32)c1 [Example 26] | 4.70 to 6.30 | – |
| Cc1ccc(C(=O)c2cn(CCc3ccccc3)c3ccccc3c2=O)cc1C [Example 27, 3-(3,4-Dimethyl-benzoyl)-1-phenethyl-1H-quinolin-4-one] | 4.70 to 6.30 | – |
| Cc1ccc(C(=O)c2cn(Cc3nnsc3Cl)c3ccccc3c2=O)cc1C [Example 28, 1-(5-Chloro-[1,2,3]thiadiazol-4-ylmethyl)-3-(3,4-dimethyl-benzoyl)-1H-quinolin-4-one] | > 7.00 | – |
| Cc1cc(Cn2cc(C(=O)c3ccc(C)c(C)c3)c(=O)c3ccccc32)no1 [Example 30, 3-(3,4-Dimethyl-benzoyl)-1-(5-methyl-isoxazol-3-ylmethyl)-1H-quinolin-4-one] | 6.30 to 7.00 | – |
| Cc1ccc(C(=O)c2cn(Cc3cscn3)c3ccccc3c2=O)cc1C [Example 31] | > 7.00 | – |

| SMILES | pIC50 [1] | pIC50 |
| --- | --- | --- |
| Cc1cccc(Cn2cc(C(=O)c3cccnc3)c(=O)c3ccccc32)c1 [Example 34, 1-(3-Methyl-benzyl)-3-(pyridine-3-carbonyl)-1H-quinolin-4-one] | 4.70 to 6.30 | – |
| Cc1cccc(Cn2cc(C(=O)c3cccnc3)c(=O)c3ccccc32)n1 [Example 35] | 4.70 to 6.30 | – |
| Cc1ccc(C(=O)c2cn(Cc3ccccc3C(F)(F)F)c3ccccc3c2=O)cc1C [Example 36] | 4.70 to 6.30 | – |
| Cc1ccc(C(=O)c2cn(Cc3ncccc3F)c3ccccc3c2=O)cc1C [Example 37] | > 7.00 | – |
| Cc1ccc(C(=O)c2cn(-c3ccccc3)c3ccccc3c2=O)cc1C [Example 38] | 4.70 to 6.30 | – |
| Cc1ccc(C(=O)c2cn(CC3CCCCC3)c3ccccc3c2=O)cc1C [Example 39] | – | > 7.00 |
| Cc1ccc(C(=O)c2cn(Cc3cccc(-c4ccccc4)n3)c3ccccc3c2=O)cc1C [Example 42] | 6.30 to 7.00 | – |
| Cc1ccc(C(=O)c2cn(Cc3cccc(C)c3F)c3ccccc3c2=O)cc1C [Example 45] | > 7.00 | – |
| Cc1ccc(C(=O)c2cn(Cc3ccccc3F)c3ccncc3c2=O)cc1C [Example 46] | 4.70 to 6.30 | – |
| Cc1cccc(Cn2cc(C(=O)c3cnc(C)c(C)c3)c(=O)c3ccccc32)n1 [Example 50] | > 7.00 | – |
| Cc1ccc(C(=O)c2cn(Cc3cccc(Br)n3)c3ccccc3c2=O)cc1C [Example 51] | > 7.00 | – |
| Cc1ccc(C(=O)c2cn(Cc3cccc(Br)n3)c3ccc(F)cc3c2=O)cc1C [Example 53] | > 7.00 | – |
| Cc1cc(C(=O)c2cn(Cc3cccc(Br)n3)c3ccccc3c2=O)cnc1C [Example 54] | > 7.00 | – |
| Cc1cccc(Cn2cc(C(=O)c3cnc(C)c(C)c3)c(=O)c3cc(F)ccc32)c1 [Example 55] | > 7.00 | – |
| Cc1ccc(C(=O)c2cn(Cc3ncccn3)c3ccccc3c2=O)cc1C [Example 56] | > 7.00 | – |
| Cc1ccc(C(=O)c2cn(Cc3cnccn3)c3ccccc3c2=O)cc1C [Example 57] | > 7.00 | – |
| Cc1ccc(C(=O)c2cn(Cc3c(C)cccc3C)c3ccccc3c2=O)cc1C [Example 58] | 4.70 to 6.30 | – |
| Cc1ccc(C(=O)c2cn(Cc3cccc(Br)n3)c3cc(F)ccc3c2=O)cc1C [Example 59] | > 7.00 | – |
| Cc1ccc(C(=O)c2cn(Cc3cccc(NS(C)(=O)=O)n3)c3ccccc3c2=O)cc1C [Example 60] | 6.30 to 7.00 | – |
| Cc1cccc(Cn2cc(C(=O)c3cnccn3)c(=O)c3ccccc32)n1 [Example 63] | 4.70 to 6.30 | – |

The next lines start with results.

| pIC50 [1] | SMILES | pIC50 |
| --- | --- | --- |
| 4.70 to 6.30 | Cc1ccc(C(=O)c2cn(Cc3cccnc3)c3cc4c(cc3c2=O)OCO4)cc1C [Example 2] | – |
| 4.70 to 6.30 | Cc1ccc(C(=O)c2cn(Cc3ccccc3F)c3cc4c(cc3c2=O)OCCO4)cc1C [Example 7] | – |
| 4.70 to 6.30 | Cc1ccc(C(=O)c2cn(Cc3ccccc3F)c3ccc(C(F)(F)F)cc3c2=O)cc1C [Example 14] | – |
| 4.70 to 6.30 | O=C(c1ccncc1)c1cn(Cc2ccccc2F)c2ccccc2c1=O [Example 15] | – |
| 4.70 to 6.30 | O=C(c1ccncc1)c1cn(Cc2ccccn2)c2ccccc2c1=O [Example 16] | – |
| 6.30 to 7.00 | Cc1cccc(Cn2cc(C(=O)c3ccccc3)c(=O)c3ccccc32)c1 [Example 18] | – |
| 4.70 to 6.30 | Cc1ccc(C(=O)c2cn(Cc3ccccc3F)c3cc4c(cc3c2=O)OC(F)(F)O4)cc1C [Example 19] | – |
| > 7.00 | Cc1cccc(C(=O)c2cn(Cc3ccccc3F)c3ccccc3c2=O)c1 [Example 21] | – |
| 4.70 to 6.30 | Cc1cc(C(=O)c2cn(Cc3ccccc3F)c3ccccc3c2=O)ccn1 [Example 24] | – |
| > 7.00 | Cc1ccc(C(=O)c2cn(Cc3ncon3)c3ccccc3c2=O)cc1C [Example 29] | – |
| 4.70 to 6.30 | O=C(c1cccnc1)c1cn(Cc2ccccc2F)c2ccccc2c1=O [Example 33] | – |
| > 7.00 | Cc1cc(C(=O)c2cn(Cc3ccccc3F)c3ccccc3c2=O)cnc1C [Example 40] | – |
| 6.30 to 7.00 | Cc1ccc(C(=O)c2cn(Cc3cccc(-c4ncco4)n3)c3ccccc3c2=O)cc1C [Example 41] | – |
| > 7.00 | Cc1ccc(C(=O)c2cn(Cc3cccc(-c4cncnc4)n3)c3ccccc3c2=O)cc1C [Example 44] | – |
| 6.30 to 7.00 | Cc1cccc(Cn2cc(C(=O)c3ccc(C)c(C)c3)c(=O)c3cnccc32)c1 [Example 47] | – |
| 6.30 to 7.00 | Cc1ccc(C(=O)c2cn(Cc3cnn[nH]3)c3ccccc3c2=O)cc1C [Example 48] | – |
| > 7.00 | Cc1ccc(C(=O)c2cn(Cc3ccccc3F)c3ccccc3c2=O)nc1C [Example 49] | – |
| 6.30 to 7.00 | CC(=O)Nc1cccc(Cn2cc(C(=O)c3ccc(C)c(C)c3)c(=O)c3ccccc32)n1 [Example 52] | – |
| 4.70 to 6.30 | O=C(c1cnccn1)c1cn(Cc2ccccc2F)c2ccccc2c1=O [Example 61] | – |
| 4.70 to 6.30 | Cc1cccc(Cn2cc(C(=O)c3cnccn3)c(=O)c3ccccc32)c1 [Example 62] | – |
